Laboratory results as given in PubChem BioAssay (NCI).
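These data come from cells grown in 96-well plates and exposed to compound for 48 hours at five concentrations. GI50: concentration for 50% inhibition of growth. TGI is the concentration that stops growth completely.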

Legend:
Assay in all cases: growth of human tumour cells (NCI), 48 h
[1] = system: MCF7 breast
[2] = system: NCI-H522 lung
[3] = system: UACC-62 melanoma
[4] = system: HT29 colon
[5] = system: NCI/ADR-RES ovarian
[6] = system: K-562 leukemia
[7] = system: OVCAR-3 ovarian
[8] = system: SN12C renal
[9] = system: OVCAR-5 ovarian
[10] = system: MOLT-4 leukemia

COC(=O)[C@H]1CCCN1C(=O)[C@H]1CCCN1C(=O)[C@@H](Cc1c[nH]c2ccccc12)NC(=S)Nc1cc(C(F)(F)F)cc(C(F)(F)F)c1
GI50 [1]: 2160 nM
TGI [1]: 5.35 µM
GI50 [2]: 1730 nM
TGI [2]: 3.51 µM
GI50 [3]: 1840 nM
TGI [3]: 3.79 µM
GI50 [4]: 1750 nM
TGI [4]: 3.65 µM
GI50 [5]: 3.45 µM
TGI [5]: 12.5 µM
GI50 [6]: 2400 nM
TGI [6]: 5.52 µM
GI50 [7]: 1690 nM
TGI [7]: 3.41 µM
GI50 [8]: 1690 nM
TGI [8]: 3.19 µM
GI50 [9]: 1780 nM
TGI [9]: 3.54 µM
GI50 [10]: 2380 nM
TGI [10]: 7.6 µM

N#CC1=C(/N=C/c2ccccc2)Oc2c(ccc3ccccc23)C1c1ccccc1 (configuration not stated)
GI50 [1]: 421 nM
TGI [1]: > 100 µM
GI50 [2]: 298 nM
GI50 [3]: 653 nM
TGI [3]: > 100 µM
GI50 [4]: 370 nM
TGI [4]: > 100 µM
GI50 [5]: 0.285 µM
TGI [5]: 1.05 µM
GI50 [6]: 358 nM
TGI [6]: > 100 µM
GI50 [7]: 341 nM
TGI [7]: 2.3 µM
GI50 [8]: 822 nM
TGI [8]: > 100 µM
GI50 [9]: 2130 nM
TGI [9]: > 100 µM
GI50 [10]: 935 nM
TGI [10]: > 100 µM

O=[N+]([O-])c1ccc(N2CCOCC2)c2c1no[n+]2[O-]
GI50 [1]: 543 nM
TGI [1]: 2.96 µM
GI50 [2]: 649 nM
TGI [2]: 2.33 µM
GI50 [3]: 1210 nM
TGI [3]: 3.87 µM
GI50 [4]: 1040 nM
TGI [4]: 2.8 µM
GI50 [5]: 1.54 µM
TGI [5]: 12.3 µM
GI50 [6]: 1650 nM
TGI [6]: 3.57 µM
GI50 [7]: 1400 nM
TGI [7]: 3.15 µM
GI50 [8]: 1200 nM
TGI [8]: 2.85 µM
GI50 [9]: 3280 nM
TGI [9]: 13.4 µM
GI50 [10]: 850 nM
TGI [10]: 3.43 µM

NS(=O)(=O)c1ccc(-c2cc3ccncc3cc2OCc2ccccc2)cc1
GI50 [1]: 14500 nM
TGI [1]: > 25 µM
GI50 [2]: > 17000 nM
TGI [2]: > 25 µM
GI50 [3]: > 23700 nM
TGI [3]: > 25 µM
GI50 [4]: > 16400 nM
TGI [4]: > 25 µM
GI50 [5]: 25 µM
TGI [5]: > 25 µM
GI50 [6]: > 19600 nM
TGI [6]: > 25 µM
GI50 [7]: 12100 nM
TGI [7]: > 25 µM
GI50 [8]: 24900 nM
TGI [8]: > 25 µM
GI50 [9]: > 25000 nM
TGI [9]: > 25 µM
GI50 [10]: > 13600 nM
TGI [10]: > 25 µM

Cc1cc(N(CCCNc2ccnc3cc(Cl)ccc23)Cc2ccco2)nc(N2CCN(C)CC2)n1
GI50 [1]: 3010 nM
TGI [1]: 13.9 µM
GI50 [2]: 3620 nM
TGI [2]: 14.4 µM
GI50 [3]: 1990 nM
TGI [3]: 3.74 µM
GI50 [4]: 2730 nM
TGI [4]: 11 µM
GI50 [5]: 4.13 µM
TGI [5]: 18.8 µM
GI50 [6]: 2070 nM
TGI [6]: 10.4 µM
GI50 [7]: 2870 nM
TGI [7]: 12.1 µM
GI50 [8]: 4240 nM
TGI [8]: 17 µM
GI50 [9]: 6080 nM
TGI [9]: 21.8 µM
GI50 [10]: 2740 nM
TGI [10]: 14 µM

O=C(O)Cc1cccnc1
TGI [1]: > 100 µM
TGI [2]: > 100 µM
TGI [3]: > 100 µM
TGI [4]: > 100 µM
TGI [5]: > 100 µM
TGI [6]: > 100 µM
TGI [7]: > 100 µM
TGI [8]: > 100 µM
TGI [9]: > 100 µM
TGI [10]: > 100 µM

O=C(CC1(O)C(=O)N(Cc2ccccc2)c2ccccc21)c1ccc(C(=O)NCC2CCC3(CC2)OOC2(CCCCC2)OO3)cc1 (configuration not stated)
GI50 [1]: 2430 nM
TGI [1]: 10.5 µM
GI50 [2]: 240 nM
TGI [2]: 0.73 µM
GI50 [3]: 2200 nM
TGI [3]: 5.44 µM
GI50 [4]: 1720 nM
TGI [4]: 3.82 µM
GI50 [5]: 1.18 µM
TGI [5]: 3.47 µM
GI50 [6]: 1720 nM
TGI [6]: 4.83 µM
GI50 [7]: 1210 nM
TGI [7]: 2.74 µM
GI50 [8]: 1660 nM
TGI [8]: 3.76 µM
GI50 [9]: 1610 nM
TGI [9]: 7.52 µM
GI50 [10]: 1890 nM
TGI [10]: 4.61 µM

CC1=C(CC(=O)c2cccc([N+](=O)[O-])c2)C(=O)c2ccccc2C1=O
GI50 [1]: 1410 nM
TGI [1]: 3.65 µM
GI50 [2]: 2970 nM
TGI [2]: 8.84 µM
GI50 [3]: 2630 nM
TGI [3]: 8.4 µM
GI50 [4]: 20100 nM
TGI [4]: 58.8 µM
GI50 [5]: 3.38 µM
TGI [5]: 20.6 µM
GI50 [6]: 7250 nM
TGI [6]: 38.9 µM
GI50 [7]: 2820 nM
TGI [7]: 9.34 µM
GI50 [8]: 2610 nM
TGI [8]: 8.39 µM
GI50 [9]: 6980 nM
TGI [9]: 20.5 µM
GI50 [10]: 3270 nM
TGI [10]: 14.1 µM

CC1OC(OC2C(O)CC(OC3C(O)CC(OC4CCC5(C)C(CCC6C5CC(O)C5(C)C(C7=CC(=O)OC7)CCC65O)C4)OC3C)OC2C)CC(O)C1O (configuration not stated)
GI50 [1]: 43.6 nM
TGI [1]: 0.196 µM
GI50 [2]: 22.5 nM
TGI [2]: 0.0639 µM
GI50 [3]: 157 nM
TGI [3]: 0.333 µM
GI50 [4]: 41.7 nM
TGI [4]: 0.154 µM
GI50 [5]: 0.0385 µM
TGI [5]: 0.145 µM
GI50 [6]: 31.9 nM
TGI [6]: 0.122 µM
GI50 [7]: 33 nM
TGI [7]: 0.113 µM
GI50 [8]: 39.1 nM
TGI [8]: 0.248 µM
GI50 [9]: 137 nM
TGI [9]: 0.295 µM
GI50 [10]: 25.2 nM
TGI [10]: 0.0619 µM

COc1ccc(/C=C(\C#N)n2nnc3c(F)cccc32)cc1
GI50 [1]: 715 nM
TGI [1]: > 100 µM
GI50 [2]: 182 nM
GI50 [3]: 303 nM
TGI [3]: 15 µM
GI50 [4]: 286 nM
GI50 [5]: 0.181 µM
TGI [5]: 4.52 µM
GI50 [6]: 64.5 nM
TGI [6]: > 100 µM
GI50 [7]: 283 nM
TGI [7]: 2.53 µM
GI50 [8]: 585 nM
TGI [8]: > 100 µM
GI50 [9]: 840 nM
TGI [9]: 14 µM
GI50 [10]: 456 nM
TGI [10]: > 100 µM

COC(=O)c1cncc(/C=C/c2c(C)cc(O)cc2C)c1
GI50 [1]: 11500 nM
TGI [1]: > 18.7 µM
GI50 [2]: 5670 nM
TGI [2]: 17.1 µM
GI50 [3]: 7710 nM
TGI [3]: > 25 µM
GI50 [4]: > 15400 nM
TGI [4]: > 25 µM
GI50 [5]: 7.3 µM
TGI [5]: > 25 µM
GI50 [6]: 2320 nM
TGI [6]: > 19 µM
GI50 [7]: 10100 nM
TGI [7]: > 21.1 µM
GI50 [8]: 11200 nM
TGI [8]: > 25 µM
GI50 [9]: > 24100 nM
TGI [9]: > 25 µM
GI50 [10]: 4190 nM
TGI [10]: > 20.1 µM

O=C(/C=C/c1cccc(O)c1)c1cccc(-n2cc(-c3ccccc3)[nH]c2=O)c1
GI50 [1]: 2290 nM
TGI [1]: 6.68 µM
GI50 [2]: 1500 nM
TGI [2]: 4.3 µM
GI50 [3]: 2820 nM
TGI [3]: 9.54 µM
GI50 [4]: 2580 nM
TGI [4]: > 20.6 µM
GI50 [5]: 3.94 µM
TGI [5]: 15.3 µM
GI50 [6]: 2520 nM
TGI [6]: > 24.8 µM
GI50 [7]: 2580 nM
TGI [7]: 6.19 µM
GI50 [8]: 3010 nM
TGI [8]: 11.3 µM
GI50 [9]: 3860 nM
TGI [9]: 11.9 µM
GI50 [10]: 3380 nM
TGI [10]: > 27.3 µM
